Read-outs that look alike come from different tables or passages of the source.
Experiments:
Assay type in all cases: cell-based
[1] = target: T1, PR (Homo sapiens, UniProt P06401); assay: co-transfection assay, PR antagonist (in presence of progesterone)
T1 construct: expressed in transfected cells; host or cells: CV-1 cells
T1 sequence (P06401 1-933): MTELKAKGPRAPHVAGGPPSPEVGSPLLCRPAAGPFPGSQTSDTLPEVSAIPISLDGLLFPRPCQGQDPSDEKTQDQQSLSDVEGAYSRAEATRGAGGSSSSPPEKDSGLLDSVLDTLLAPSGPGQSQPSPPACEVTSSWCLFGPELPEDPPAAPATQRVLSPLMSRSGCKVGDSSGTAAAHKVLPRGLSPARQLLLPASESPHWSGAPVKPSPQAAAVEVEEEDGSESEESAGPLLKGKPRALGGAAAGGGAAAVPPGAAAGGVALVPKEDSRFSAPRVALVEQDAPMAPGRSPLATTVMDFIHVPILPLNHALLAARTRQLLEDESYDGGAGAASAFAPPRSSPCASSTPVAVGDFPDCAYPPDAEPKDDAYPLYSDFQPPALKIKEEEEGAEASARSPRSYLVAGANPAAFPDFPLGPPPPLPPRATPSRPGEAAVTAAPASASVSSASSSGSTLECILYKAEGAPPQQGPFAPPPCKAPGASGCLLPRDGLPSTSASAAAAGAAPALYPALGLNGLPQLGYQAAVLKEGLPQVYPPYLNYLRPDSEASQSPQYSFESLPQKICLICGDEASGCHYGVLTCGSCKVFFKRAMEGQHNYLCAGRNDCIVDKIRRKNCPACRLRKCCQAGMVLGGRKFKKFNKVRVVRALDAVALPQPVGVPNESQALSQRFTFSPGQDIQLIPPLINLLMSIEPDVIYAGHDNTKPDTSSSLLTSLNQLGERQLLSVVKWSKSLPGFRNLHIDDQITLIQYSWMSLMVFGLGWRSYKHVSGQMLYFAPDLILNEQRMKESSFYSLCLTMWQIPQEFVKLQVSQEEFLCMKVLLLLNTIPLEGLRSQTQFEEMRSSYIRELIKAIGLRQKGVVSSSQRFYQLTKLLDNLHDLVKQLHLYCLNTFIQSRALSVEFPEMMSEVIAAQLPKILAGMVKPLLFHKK
Experimental: (§1) CV-1 cells (African green monkey kidney fibroblasts) were cultured in the presence of Dulbecco's Modified Eagle Medium (DMEM) supplemented with 10% charcoal resin-stripped fetal bovine serum (CH-FBS) then transferred to 96-well microtiter plates one day prior to transfection.
(§2) Three to four replicates were used for each sample.
(§3) After 40 hours, the cells were washed with PBS, lysed with a Triton X-100-based buffer and assayed for LUC and β-Gal activities using a luminometer or spectrophotometer, respectively. For each replicate, the normalized response (NR) was calculated as: […]

[2] = target: T2, ER (Homo sapiens, UniProt P03372); assay: co-transfection assay, ER agonist
T2 construct: expressed in transfected cells; host or cells: CV-1 cells
T2 sequence (P03372 whole entry): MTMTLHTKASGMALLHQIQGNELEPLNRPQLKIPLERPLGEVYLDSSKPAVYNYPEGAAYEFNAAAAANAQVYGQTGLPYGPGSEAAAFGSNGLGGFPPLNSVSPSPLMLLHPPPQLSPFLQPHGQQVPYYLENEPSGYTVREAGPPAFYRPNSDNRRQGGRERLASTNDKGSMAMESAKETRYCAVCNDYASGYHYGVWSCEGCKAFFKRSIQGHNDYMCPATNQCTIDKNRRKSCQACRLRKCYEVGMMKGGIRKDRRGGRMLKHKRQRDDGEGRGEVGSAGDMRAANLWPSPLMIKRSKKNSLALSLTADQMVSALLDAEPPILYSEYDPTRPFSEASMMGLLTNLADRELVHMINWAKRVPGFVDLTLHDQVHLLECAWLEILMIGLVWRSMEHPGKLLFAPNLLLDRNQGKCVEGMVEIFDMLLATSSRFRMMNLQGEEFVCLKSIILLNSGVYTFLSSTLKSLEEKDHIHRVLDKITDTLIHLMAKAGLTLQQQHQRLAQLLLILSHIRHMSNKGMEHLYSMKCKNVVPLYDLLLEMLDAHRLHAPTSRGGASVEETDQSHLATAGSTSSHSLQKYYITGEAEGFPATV
Experimental: as §1, §2, §3

[3] = target: T2, ER; assay: co-transfection assay, ER antagonist
Experimental: as §1, §2, §3

[4] = target: T3, GR (Homo sapiens, UniProt P04150); assay: co-transfection assay, GR antagonist
T3 construct: expressed in transfected cells; host or cells: CV-1 cells
T3 sequence (P04150 1-777): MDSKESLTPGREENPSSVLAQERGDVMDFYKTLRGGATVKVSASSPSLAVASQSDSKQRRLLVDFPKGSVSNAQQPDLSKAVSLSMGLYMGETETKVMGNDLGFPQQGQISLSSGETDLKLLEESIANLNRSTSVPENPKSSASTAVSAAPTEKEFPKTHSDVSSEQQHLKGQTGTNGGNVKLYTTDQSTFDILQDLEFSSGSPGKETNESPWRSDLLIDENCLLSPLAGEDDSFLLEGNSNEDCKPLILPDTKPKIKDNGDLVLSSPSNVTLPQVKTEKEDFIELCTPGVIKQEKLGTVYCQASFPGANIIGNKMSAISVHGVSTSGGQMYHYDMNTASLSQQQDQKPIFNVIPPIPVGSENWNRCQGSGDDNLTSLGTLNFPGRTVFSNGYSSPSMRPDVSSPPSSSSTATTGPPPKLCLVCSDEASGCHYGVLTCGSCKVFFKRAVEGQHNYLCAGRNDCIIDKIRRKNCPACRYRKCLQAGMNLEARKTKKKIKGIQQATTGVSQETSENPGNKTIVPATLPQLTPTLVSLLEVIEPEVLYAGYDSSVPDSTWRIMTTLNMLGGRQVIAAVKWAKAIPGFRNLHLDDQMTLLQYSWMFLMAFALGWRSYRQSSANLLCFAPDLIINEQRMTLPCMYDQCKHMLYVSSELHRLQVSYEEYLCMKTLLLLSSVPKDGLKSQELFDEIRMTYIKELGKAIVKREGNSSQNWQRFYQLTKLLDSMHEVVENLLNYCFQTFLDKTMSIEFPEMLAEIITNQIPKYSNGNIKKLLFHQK
Experimental: as §1, §2, §3

[5] = target: T4, MR (Homo sapiens, UniProt P08235); assay: co-transfection assay, MR antagonist
T4 construct: expressed in transfected cells; host or cells: CV-1 cells
T4 sequence (P08235 1-984): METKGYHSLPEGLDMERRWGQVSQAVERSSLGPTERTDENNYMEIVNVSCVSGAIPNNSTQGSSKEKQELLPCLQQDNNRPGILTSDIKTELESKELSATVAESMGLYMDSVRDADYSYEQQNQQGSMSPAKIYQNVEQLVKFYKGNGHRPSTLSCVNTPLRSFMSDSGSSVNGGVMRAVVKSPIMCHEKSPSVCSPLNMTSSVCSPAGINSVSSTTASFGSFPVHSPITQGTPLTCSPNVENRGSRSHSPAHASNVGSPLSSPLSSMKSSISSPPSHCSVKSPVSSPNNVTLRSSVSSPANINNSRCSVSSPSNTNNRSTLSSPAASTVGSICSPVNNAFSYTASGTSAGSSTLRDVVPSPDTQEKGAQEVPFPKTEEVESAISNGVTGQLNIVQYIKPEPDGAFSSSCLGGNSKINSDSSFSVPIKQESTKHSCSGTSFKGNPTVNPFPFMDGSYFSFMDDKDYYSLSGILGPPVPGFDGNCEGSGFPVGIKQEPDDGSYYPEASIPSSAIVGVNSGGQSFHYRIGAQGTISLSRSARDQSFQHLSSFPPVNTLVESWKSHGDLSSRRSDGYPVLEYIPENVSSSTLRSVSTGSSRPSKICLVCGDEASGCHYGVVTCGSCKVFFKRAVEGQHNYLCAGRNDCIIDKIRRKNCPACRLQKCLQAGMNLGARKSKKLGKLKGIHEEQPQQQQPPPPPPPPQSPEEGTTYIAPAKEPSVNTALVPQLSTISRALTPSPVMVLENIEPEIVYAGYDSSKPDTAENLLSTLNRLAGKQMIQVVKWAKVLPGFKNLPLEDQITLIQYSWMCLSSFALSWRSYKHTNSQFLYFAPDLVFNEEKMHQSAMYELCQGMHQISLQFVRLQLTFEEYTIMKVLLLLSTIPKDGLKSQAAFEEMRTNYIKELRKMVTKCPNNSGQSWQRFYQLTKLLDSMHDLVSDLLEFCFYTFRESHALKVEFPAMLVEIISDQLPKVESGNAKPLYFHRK
Experimental: as §1, §2, §3

[6] = target: T1, PR; assay: co-transfection assay, PR agonist
Experimental: as §1, §2, §3

[7] = target: T5, hAR (Homo sapiens, UniProt P10275); assay: co-transfection assay, AR agonist, CV-1 cells
T5 construct: expressed in transfected cells; host or cells: CV-1 cells (African green monkey kidney fibroblasts)
T5 sequence (P10275 1-920): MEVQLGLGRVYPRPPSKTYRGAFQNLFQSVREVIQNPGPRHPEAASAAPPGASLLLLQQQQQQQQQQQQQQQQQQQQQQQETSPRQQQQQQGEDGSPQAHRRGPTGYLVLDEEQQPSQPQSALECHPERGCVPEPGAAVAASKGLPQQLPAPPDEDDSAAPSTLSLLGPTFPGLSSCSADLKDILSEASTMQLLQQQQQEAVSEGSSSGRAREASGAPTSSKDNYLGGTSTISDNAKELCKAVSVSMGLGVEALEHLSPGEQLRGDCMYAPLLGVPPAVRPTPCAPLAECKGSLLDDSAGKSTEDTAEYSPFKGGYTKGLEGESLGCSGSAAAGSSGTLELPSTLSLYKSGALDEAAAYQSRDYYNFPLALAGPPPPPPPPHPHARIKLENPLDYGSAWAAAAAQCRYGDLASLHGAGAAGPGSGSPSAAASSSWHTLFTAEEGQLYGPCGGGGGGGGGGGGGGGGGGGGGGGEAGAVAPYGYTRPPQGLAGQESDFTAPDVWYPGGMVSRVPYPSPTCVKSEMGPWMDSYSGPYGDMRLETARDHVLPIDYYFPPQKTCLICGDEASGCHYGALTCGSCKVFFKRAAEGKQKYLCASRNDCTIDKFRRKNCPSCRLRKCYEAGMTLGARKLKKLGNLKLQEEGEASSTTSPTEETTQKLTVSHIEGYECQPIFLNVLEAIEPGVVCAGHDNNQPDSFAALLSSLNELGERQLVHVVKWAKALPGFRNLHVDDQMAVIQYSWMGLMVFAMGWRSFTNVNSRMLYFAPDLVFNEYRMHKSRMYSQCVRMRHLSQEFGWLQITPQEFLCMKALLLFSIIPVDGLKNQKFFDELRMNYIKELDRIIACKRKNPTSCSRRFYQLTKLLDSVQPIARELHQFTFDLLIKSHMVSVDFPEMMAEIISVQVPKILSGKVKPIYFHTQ

[8] = target: T5, hAR; assay: co-transfection assay, AR antagonist (in presence of DHT), CV-1 cells

CC1CN(CC(F)(F)F)c2cc3c(C(F)(F)F)cc(=O)[nH]c3cc2O1 (racemic) [Compound 114, (±)-1,2,3,6-Tetrahydro-3-methyl-1-(2,2,2-trifluoroethyl)-9-(trifluoromethyl)-7H-[1,4]oxazino[3,2-g]quinolin-7-one]
IC50 [1]: > 10 µM | EC50 [2]: > 10 µM | IC50 [3]: > 10 µM | IC50 [4]: > 10 µM | IC50 [5]: > 10 µM | EC50 [6]: > 10 µM

CC1COc2cc3[nH]c(=O)cc(C(F)(F)F)c3cc2N1CC(F)(F)F (racemic) [Compound 123, (±)-1,2,3,6-Tetrahydro-2-methyl-1-(2,2,2-trifluoroethyl)-9-(trifluoromethyl)-7H-[1,4]oxazino[3,2-g]quinolin-7-one]
IC50 [1]: 2.47 µM | EC50 ([7]; AR Agonist CV-1 Cells Potency (nM), hAR in CV-1 cells): 3.4 nM | EC50 ([7]; AR Potency Agon (nM), Table 2): 3.4 nM | AR Agonist CV-1 Cells Efficacy (%) ([7]; hAR in CV-1 cells, relative to maximum LUC production by reference agonist): 91% | EC50 [2]: > 10 µM | IC50 [3]: > 10 µM | IC50 [4]: 3.16 µM | EC50 [6]: > 10 µM | IC50 [8]: > 10 µM | AR Antagonist CV-1 Cells Efficacy (%) ([8]; hAR in CV-1 cells, maximal inhibition, DHT at EC50): na (na = not active (i.e. efficacy of < 20 and potency of > 10,000 nM for the cotransfection assay, and Ki > 1000 nM for the binding assay)) | IC50 ([8]; read-out: AR Potency Antag, Table 2): > 10 µM

CN1CCOc2cc3[nH]c(=O)cc(C(F)(F)F)c3cc21 [Compound 101, 1,2,3,6-Tetrahydro-1-methyl-9-(trifluoromethyl)-7H-[1,4]oxazino[3,2-g]quinolin-7-one]
IC50 [1]: > 10 µM | EC50 [2]: > 10 µM | IC50 [3]: > 10 µM | IC50 [4]: 6.5 µM | IC50 [5]: > 10 µM | EC50 [6]: > 10 µM

CCN1CCOc2cc3[nH]c(=O)cc(C(F)(F)F)c3cc21 [Compound 103, 1-Ethyl-1,2,3,6-tetrahydro-9-(trifluoromethyl)-7H-[1,4]oxazino[3,2-g]quinolin-7-one]
IC50 [1]: 4.5 µM | EC50 [2]: > 10 µM | IC50 [3]: > 10 µM | IC50 [4]: > 10 µM | IC50 [5]: > 10 µM | EC50 [6]: > 10 µM

O=c1cc(C(F)(F)F)c2cc3c(cc2[nH]1)OCCN3CC1CC1 [Compound 121, 1-Cyclopropylmethyl-1,2,3,6-tetrahydro-9-(trifluoromethyl)-7H-[1,4]oxazino[3,2-g]quinolin-7-one]
IC50 [1]: 0.415 µM | EC50 [2]: > 10 µM | IC50 [3]: > 10 µM | IC50 [4]: 1.05 µM | IC50 [5]: 2.57 µM | EC50 [6]: > 10 µM

C[C@]1(O)CC[C@H]2[C@@H]3CCC4=CC(=O)CC[C@]4(C)[C@@]3(F)[C@@H](O)C[C@@]21C [Fluox, fluoxymesterone]
IC50 [1]: 0.224 µM | IC50 [4]: 0.263 µM | IC50 [5]: 0.193 µM | EC50 [6]: 1.21 µM

CC(C)(O)C(=O)Nc1ccc([N+](=O)[O-])c(C(F)(F)F)c1 [Flut, 2-hydroxyflutamide, reference compound]
EC50 ([2]; Table 2, read-out: ER Potency Agon): > 10 µM | IC50 ([3]; Table 2, read-out: ER Potency Antag): > 10 µM
